Each block holds one compound with its values, some of them ahead of it.
Assays:
[1] = target: K-Ras G13C (Homo sapiens, UniProt P01116+P62937, G13C); test: Raf-Ras (FRET or MOA) binding assay: disruption of BRAF RBD interaction with K-Ras G13C in presence of Cyclophilin A; type: biochemical; details: read-out: IC50 in the Raf-Ras (FRET or MOA) binding assay re: K-Ras G13C
Description: As used herein, the term “linker” refers to a divalent organic moiety connecting a first moiety (e.g., a macrocyclic moiety) to a second moiety (e.g., a cross-linking group). […] Compound is present in plate wells as a 10-point 3-fold dilution series starting at a final concentration of 30 μM. After incubation at 25° C. for 3 hours, a mixture of Anti-His Eu-W1024 and anti-GST allophycocyanin is then added to assay sample wells at final concentrations of 10 nM and 50 nM, respectively, and the reaction incubated for an additional 1.5 hours. TR-FRET signal is read on a microplate reader (Ex 320 nm, Em 665/615 nm). Compounds that facilitate disruption of a Ras:RAF complex are identified as those eliciting a decrease in the TR-FRET ratio relative to DMSO control wells.
Disruption of B-Raf Ras-Binding Domain (BRAF RBD) Interaction with K-Ras by Compounds of the Invention (Also Called a FRET Assay or an MOA Assay)
Note—The following protocol describes a procedure for monitoring disruption of K-Ras G12C (GMP-PNP) binding to BRAF^RBD by a compound of the invention. This protocol may also be executed substituting other Ras proteins or nucleotides.
The purpose of this biochemical assay was to measure the ability of test compounds to facilitate ternary complex formation between a nucleotide-loaded K-Ras isoform and Cyclophilin A; the resulting ternary complex disrupts binding to a BRAF^RBD Construct, inhibiting K-Ras signaling through a RAF effector. Data was reported as IC50 values.
In assay buffer containing 25 mM HEPES pH 7.3, 0.002% Tween20, 0.1% BSA, 100 mM NaCl and 5 mM MgCl2, tagless Cyclophilin A, His6-K-Ras-GMPPNP, and GST-BRAF^RBD were combined in a 384-well assay plate at final concentrations of 25 μM, 12.5 nM and 50 nM, respectively. Compound was present in plate wells as a 10-point 3-fold dilution series starting at a final concentration of 30 μM. […] TR-FRET signal was read on a microplate reader (Ex 320 nm, Em 665/615 nm). […]

[2] = system: NCI-H358 (K-Ras G12C); test: CellTiter-Glo cell viability assay, 5-day treatment, NCI-H358; type: cell-based; details: Homo sapiens, NCI-H358, 120 h
Source text: Determination of Cell Viability in RAS Mutant Cancer Cell Lines
Protocol: CellTiter-Glo® Cell Viability Assay
Note—The following protocol describes a procedure for monitoring cell viability of K-Ras mutant cancer cell lines in response to a compound of the invention. Other RAS isoforms may be employed, though the number of cells to be seeded will vary based on cell line used.
The purpose of this cellular assay was to determine the effects of test compounds on the proliferation of three human cancer cell lines (NCI-H358 (K-Ras G12C), AsPC-1 (K-Ras G12D), and Capan-1 (K-Ras G12V)) over a 5-day treatment period by quantifying the amount of ATP present at endpoint using the CellTiter-Glo® 2.0 Reagent (Promega).
Cells were seeded at 250 cells/well in 40 μL of growth medium in 384-well assay plates and incubated overnight in a humidified atmosphere of 5% CO2 at 37° C. On the day of the assay, 10 mM stock solutions of test compounds were first diluted into 3 mM solutions with 100% DMSO. Well-mixed compound solutions (15 μL) were transferred to the next wells containing 30 μL of 100% DMSO, and repeated until a 9-concentration 3-fold serial dilution was made (starting assay concentration of 10 μM). Test compounds (132.5 nL) were directly dispensed into the assay plates containing cells. The plates were shaken for 15 seconds at 300 rpm, centrifuged, and incubated in a humidified atmosphere of 5% CO2 at 37° C. for 5 days. On day 5, assay plates and their contents were equilibrated to room temperature for approximately 30 minutes. CellTiter-Glo® 2.0 Reagent (25 μL) was added, and plate contents were mixed for 2 minutes on an orbital shaker before incubation at room temperature for 10 minutes. Luminescence was measured using the PerkinElmer Enspire. Data were normalized by the following: (Sample signal/Avg. DMSO)*100. The data were fit using a four-parameter logistic fit.

[3] = target: T1, K-Ras G12C (Homo sapiens, UniProt P01116+P62937, G12C); test: pERK potency assay in NCI-H358 cells (AlphaLISA SureFire or In-Cell Western); type: cell-based; details: 4 hours incubation
T1 construct: endogenous in cells; host or cells: NCI-H358
Description: The purpose of this assay was to measure the ability of test compounds to inhibit K-Ras in cells. […] This procedure measures a decrease in cellular pERK in response to test compounds. The procedure described below in NCI-H358 cells is applicable to K-Ras G12C. […]
NCI-H358 cells were grown and maintained using media and procedures recommended by the ATCC. On the day prior to compound addition, cells were plated in 384-well cell culture plates (40 μl/well) and grown overnight in a 37° C., 5% CO2 incubator. Test compounds were prepared in 10, 3-fold dilutions in DMSO, with a high concentration of 10 mM. On the day of assay, 40 nL of test compound was added to each well of cell culture plate using an Echo550 liquid handler (LabCyte®). Concentrations of test compound were tested in duplicate. After compound addition, cells were incubated 4 hours at 37° C., 5% CO2. Following incubation, culture medium was removed and cells were washed once with phosphate buffered saline.
In some experiments, cellular pERK level was determined using the AlphaLISA SureFire Ultra p-ERK1/2 Assay Kit (PerkinElmer). Cells were lysed in 25 μL lysis buffer, with shaking at 600 RPM at room temperature. Lysate (10 μL) was transferred to a 384-well Opti-plate (PerkinElmer) and 5 μL acceptor mix was added. After a 2-hour incubation in the dark, 5 μL donor mix was added, the plate was sealed, and incubated 2 hours at room temperature. Signal was read on an Envision plate reader (PerkinElmer) using standard AlphaLISA settings. Analysis of raw data was carried out in Excel (Microsoft) and Prism (GraphPad). Signal was plotted vs. the decadal logarithm of compound concentration, and IC50 was determined by fitting a 4-parameter sigmoidal concentration response model.
In other experiments, cellular pERK was determined by In-Cell Western. Following compound treatment, cells were washed twice with 200 μL tris buffered saline (TBS) and fixed for 15 minutes with 150 μL 4% paraformaldehyde in TBS. Fixed cells were washed 4 times for 5 minutes with TBS containing 0.1% Triton X-100 (TBST) and then blocked with 100 μL Odyssey blocking buffer (LI-COR) for 60 minutes at room temperature. […] Cells were washed 4 times for 5 minutes with TBST. Secondary antibody (IR-800CW rabbit, LI-COR, diluted 1:800) and DNA stain DRAQ5 (LI-COR, diluted 1:2000) were added and incubated 1-2 hours at room temperature. Cells were washed 4 times for 5 minutes with TBST. Plates were scanned on a Li—COR Odyssey CLx Imager. Analysis of raw data was carried out in Excel (Microsoft) and Prism (GraphPad). Signal was plotted vs. the decadal logarithm of compound concentration, and IC50 was determined by fitting a 4-parameter sigmoidal concentration response model.

[4] = system: SW1573; details: Canon et al., Nature 575:217-223 (2019); cited from earlier work
[5] = ester bond; 18-membered ring; EDCI/HOBT/DIPEA; DCM; 6.8 mM

K-Ras G13C, sequence (P01116 1-188 isoform P01116-2 G13C): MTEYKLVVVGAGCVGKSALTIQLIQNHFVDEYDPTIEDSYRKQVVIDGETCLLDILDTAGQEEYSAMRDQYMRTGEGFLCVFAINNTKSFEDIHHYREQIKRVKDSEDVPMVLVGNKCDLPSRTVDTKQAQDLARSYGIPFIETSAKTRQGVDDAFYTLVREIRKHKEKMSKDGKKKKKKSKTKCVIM
K-Ras G13C, sequence (P62937 whole entry): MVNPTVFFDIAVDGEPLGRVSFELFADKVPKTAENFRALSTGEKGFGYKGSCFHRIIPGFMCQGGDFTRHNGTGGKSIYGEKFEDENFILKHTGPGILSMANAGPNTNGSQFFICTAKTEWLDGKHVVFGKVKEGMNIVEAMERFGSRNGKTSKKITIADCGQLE
T1 sequence (P01116 1-188 isoform P01116-2 G12C): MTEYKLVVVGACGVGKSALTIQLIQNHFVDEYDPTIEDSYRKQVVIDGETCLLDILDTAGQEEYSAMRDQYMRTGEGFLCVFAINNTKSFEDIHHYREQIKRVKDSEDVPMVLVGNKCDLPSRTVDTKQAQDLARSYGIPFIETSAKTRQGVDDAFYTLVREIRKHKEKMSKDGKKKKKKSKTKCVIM
T1 sequence (P62937 whole entry): as the sequence (P62937 whole entry) above

IC50 [1]: > 1500 nM
Compound: CCn1c(-c2cccnc2[C@H](C)OC)c2c3cc(ccc31)-c1cccc(c1)C[C@H](NC(=O)[C@@H](COC1CN(C(=O)C#CC(C)(C)N(C)C)C1)N(C)C)C(=O)N1CCC[C@H](N1)C(=O)OCC(C)(C)C2 (atropisomer, axis not shown) [Example A169]

IC50 [1]: > 1500 nM
Compound: CCn1c(-c2cccnc2[C@H](C)OC)c2c3cc(ccc31)N1CCS[C@@H](C[C@H](NC(=O)[C@@H](COC3CN(C(=O)C#CC(C)(C)N(C)C)C3)N(C)C)C(=O)N3CCC[C@H](N3)C(=O)OCC(C)(C)C2)C1 (atropisomer, axis not shown) [Example A171]

IC50 [1]: > 1500 nM
Compound: CCn1c(-c2cccnc2[C@H](C)OC)c2c3cc(ccc31)N1CCS[C@@H](C[C@H](NC(=O)[C@@H](COC3CN(C(=O)C#CC(C)(C)N(C)C)C3)C(C)C)C(=O)N3CCC[C@H](N3)C(=O)OCC(C)(C)C2)C1 (atropisomer, axis not shown) [Example A175]

IC50 [2]: > 1000 nM
IC50 [3]: > 1000 nM
Compound: C=CC(=O)N1CCOC2(CCN(C(=O)N(C)[C@H](C(=O)N[C@H]3Cc4nccc(n4)-c4ccc5c(c4)c(c(-c4cccnc4[C@H](C)OC)n5CC)CC(C)(C)COC(=O)[C@@H]4CCCN(N4)C3=O)C(C)C)CC2)C1 (atropisomer, axis not shown) [Example A191]

IC50 [2]: > 1000 nM
IC50 [3]: > 1000 nM
Compound: CCn1c(-c2cccnc2[C@H](C)OC)c2c3cc(ccc31)C1=CCCN(C1)C[C@H](NC(=O)[C@H](C(C)C)N(C)C(=O)N1CCC3(CCN(C(=O)/C=C/CN(C)C)C3)CC1)C(=O)N1CCC[C@H](N1)C(=O)OCC(C)(C)C2 (atropisomer, axis not shown) [Example A192]

Compound: C=CC(=O)N1CCN(c2nc(=O)n(-c3c(C)ccnc3C(C)C)c3nc(-c4c(O)cccc4F)c(F)cc23)[C@@H](C)C1 [AMG510]
sensitivity of cell line SW1573 [4]: insensitive

Compound: tert-butyl ((6^3S,4S,Z)-1^1-ethyl-1^2-(2-((S)-1-methoxyethyl)pyridin-3-yl)-10,10-dimethyl-5,7-dioxo-6^1,6^2,6^3,6^4,6^5,6^6-hexahydro-1^1H-8-oxa-2(5,3)-oxadiazola-1(5,3)-indola-6(1,3)-pyridazinacycloundecaphane-4-yl)carbamate
ring closure, isolated yield [5]: 18%
